Assay results reported in publication PMC11555526, “Development of 2-Aminoadenine-Based Proteolysis-Targeting Chimeras (PROTACs) as Novel Potent Degraders of Monopolar Spindle 1 and Aurora Kinases” (ACS Pharmacology & Translational Science, 2024).

Columns and labels:
AURKB = target: T1, AURKB (Homo sapiens, UniProt Q96GD4); assay: Immunoblot of AURKB in naive MV4-11 cells; assay type: cell-based; details: 6 h, 10 µM
T1 construct: endogenous in cells; host or cells: naive MV4-11
Description: (§1) The cells were treated with compounds or vehicle for indicated time points and lysed in RIPA lysis buffer (50 mM HEPES pH 7.9, 140 mM NaCl, 1 mM EDTA, 1% Triton X-100, 0.1% SDS, 0.1% sodium deoxycholate) containing protease and phosphatase inhibitors (Sigma) for 20 min at 4 °C. Cell lysates were cleared by centrifugation, and protein concentration was determined with bicinchoninic acid assay. Equal amounts of protein per sample were separated by Bis-Tris-PAGE and transferred to PVDF membranes (Millipore). The membranes were blocked with 5% (w/v) nonfat dry milk in TBS-T [20 mM Tris–HCl, pH 7.5, 150 mM NaCl, 0.1% (v/v) Tween-20] for 1 h at room temperature and incubated with primary antibody at 4 °C overnight. Visualization was carried out using horseradish peroxidase (HRP)-labeled secondary antibodies and detected using a chemiluminescent HRP substrate (Millipore) in LAS3000 or LAS4000 mini (Fujifilm). Vinculin, GAPDH, or B-actin were used as a loading control. The loading control was probed along with the target antibody by cutting the membrane. For targets with similar molecular weights, the samples were run in duplicate and probed with their respective loading controls, although only one control was shown in the figure for all targets. The signal was quantified using ImageJ or Image Studio Lite against the corresponding loading controls. Antibodies used in this study were as follows: Aurora A/AIK (Cell Signaling Technology, 3092), Aurora B (Bethyl Laboratories, A300–431A), TTK (Santa Cruz Biotechnology, sc-56968), GAPDH (Cell Signaling Technology, 2118), B-Actin (Sigma, A5441), and Vinculin (Sigma, V9131).
(§2) α GAPDH α Vinculin α B-Actin
(§3) Figure S2: Cellular degradation studies of SF1-based compounds. […]
(§4) Immunoblots of TTK and AURKB. Naive MV4-11 cells were treated with indicated concentration of 44 or 47 G)
(§5) (E), 18 (F), and 14 or 20 (G) for 6 h and compared with vehicle treated cells. […]
(§6) All HiBiT data are represented as a mean ±s.d. from n=2 replicates. […]

TTK = target: T2, TTK (Homo sapiens, UniProt P33981); assay: Immunoblot of TTK in naive MV4-11 cells; assay type: cell-based; set-up: endogenous in cells; host or cells: naive MV4-11; details: 6 h
T2 sequence (P33981 1-857): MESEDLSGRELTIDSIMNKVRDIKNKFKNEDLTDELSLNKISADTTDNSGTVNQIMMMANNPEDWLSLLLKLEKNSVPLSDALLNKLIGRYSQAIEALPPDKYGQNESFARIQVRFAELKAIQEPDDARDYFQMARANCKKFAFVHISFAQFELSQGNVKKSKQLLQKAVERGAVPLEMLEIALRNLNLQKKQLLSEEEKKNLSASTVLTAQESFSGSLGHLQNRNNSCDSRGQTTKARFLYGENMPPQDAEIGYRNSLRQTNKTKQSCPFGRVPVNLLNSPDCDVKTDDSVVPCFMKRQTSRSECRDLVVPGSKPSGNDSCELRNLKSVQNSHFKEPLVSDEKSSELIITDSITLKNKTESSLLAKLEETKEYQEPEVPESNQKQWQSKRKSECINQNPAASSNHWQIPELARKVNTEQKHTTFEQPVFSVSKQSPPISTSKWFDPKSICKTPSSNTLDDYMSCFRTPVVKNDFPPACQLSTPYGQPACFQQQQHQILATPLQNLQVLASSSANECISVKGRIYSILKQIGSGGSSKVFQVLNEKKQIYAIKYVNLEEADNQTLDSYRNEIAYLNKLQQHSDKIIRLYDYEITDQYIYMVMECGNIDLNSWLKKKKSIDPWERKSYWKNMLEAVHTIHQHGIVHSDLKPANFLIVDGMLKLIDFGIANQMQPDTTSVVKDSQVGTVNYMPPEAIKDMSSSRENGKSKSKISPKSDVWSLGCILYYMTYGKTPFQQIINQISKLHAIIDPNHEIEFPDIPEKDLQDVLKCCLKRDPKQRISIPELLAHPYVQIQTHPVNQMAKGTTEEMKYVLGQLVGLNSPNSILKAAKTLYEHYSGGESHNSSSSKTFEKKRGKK
Description: as §1, §2, §3
GAPDH was used as a loading control. (E-
as §4, §5, §6

[1] = Stability in buffer solutions (LC-ESI-MS); assay type: physicochemical; details: for residual concentration (% of initial concentration): after 24 h
Description: Lastly, to gain a first insight into the stability of the synthesized compounds in a biological system, the stability of one of the degraders was examined at two different pH values and in human plasma (Figures S8 and S9). We chose one of the best degraders of the SF1 series, 20 as it also resembled the best degrader from azareversine series 19 in terms of the linker and E3-binding moiety. All experiments were carried out at 37 °C, and aliquots were analyzed using LC-ESI-MS at predetermined time points. […] We concluded from the stability profile of 20 that it is sufficient for further testing. […]
Stability in Buffer Solutions
The stability of the conjugate was examined by performing chemostability experiments at two different buffer solutions (pH = 5.2 and 7.4). Conjugate 20 was dissolved in 5 µL DMSO and transferred to 0.5 mL of the relevant buffer solution (acetate or phosphate aquatic buffer solutions). The mixture was then incubated at 37 °C, samples were collected at predetermined time points (0, 1, 2, 3, 4, 5, 24 and 48 h), and analyzed by LC-MS.
Results are presented as the mean ± of SD after repeating the experiment three times.
Figure S9: ESI-LCMS charts detected at 254 nm of conjugate 20 at pΗ5.2 and selected time intervals

[2] = Plasma stability (LC-ESI-MS); assay type: in vitro ADME; details: 37 °C
Description: Lastly, to gain a first insight into the stability of the synthesized compounds in a biological system, the stability of one of the degraders was examined at two different pH values and in human plasma (Figures S8 and S9). We chose one of the best degraders of the SF1 series, 20 as it also resembled the best degrader from azareversine series 19 in terms of the linker and E3-binding moiety. All experiments were carried out at 37 °C, and aliquots were analyzed using LC-ESI-MS at predetermined time points. […] We concluded from the stability profile of 20 that it is sufficient for further testing.
First, 250 µg of conjugate 20 were diluted in 5 µL DMSO and the mixture was added to 0.5 mL of human plasma. The mixture was incubated at 37 °C. 50 µL of aliquot was removed at predetermined time points and quenched with 150 µL ice-cold acetonitrile (+0.1% formic acid). Then, the mixture was centrifuged at 10,000 rpm for 10 min. Then, 50 µL of supernatant was added to 50 µL of ultrapure water (+0.1% formic acid) and analyzed by LC-MS. Results are presented as the mean ± SD of three independent experiments. […]

T1 sequence (Q96GD4 whole entry): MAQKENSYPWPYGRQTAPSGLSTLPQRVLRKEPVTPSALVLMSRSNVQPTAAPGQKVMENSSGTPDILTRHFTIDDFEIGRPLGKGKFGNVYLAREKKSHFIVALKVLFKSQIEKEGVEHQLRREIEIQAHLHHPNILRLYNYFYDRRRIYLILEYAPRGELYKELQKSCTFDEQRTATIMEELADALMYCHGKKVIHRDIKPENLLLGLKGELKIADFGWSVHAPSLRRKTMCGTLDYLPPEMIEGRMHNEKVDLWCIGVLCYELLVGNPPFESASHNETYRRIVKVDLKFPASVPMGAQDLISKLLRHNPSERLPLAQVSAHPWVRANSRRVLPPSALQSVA

SMILES | relative AURKB level (immunoblot quantification, vehicle = 1.00) (AURKB) | relative TTK level (immunoblot quantification, vehicle = 1.00) (TTK; 10 µM) | residual concentration (% of initial concentration) ([1]; pH 5.2, 37 °C) [%] | stability at both pH values ([1]; pH 5.2 and 7.4, 37 °C, for 8 h) | residual concentration (% of initial concentration) ([1]; pH 7.4, 37 °C) [%] | half-life (t1/2) in human plasma [2] [h] | relative TTK level (immunoblot quantification, vehicle = 1.00) (TTK; 0.01 µM) | relative TTK level (immunoblot quantification, vehicle = 1.00) (TTK; 1 µM)
CC(C)S(=O)(=O)c1ccccc1Nc1nc(Nc2ccc(N3CCN(C(=O)CCCC(=O)Nc4cccc5c4C(=O)N(C4CCC(=O)NC4=O)C5=O)CC3)cc2)nc2[nH]cnc12 (stereo not shown) [Compound 14] | 0.87 | 1.16 | – | – | – | – | – | –
CC(C)S(=O)(=O)c1ccccc1Nc1nc(Nc2ccc(N3CCN(C(=O)CNC(=O)CCCC(=O)Nc4cccc5c4C(=O)N(C4CCC(=O)NC4=O)C5=O)CC3)cc2)nc2[nH]cnc12 (stereo not shown) [Compound 20] | – | – | 56 | stable | 11.2 | 4.4 | – | –
Cc1ncsc1-c1ccc(CNC(=O)[C@@H]2C[C@@H](O)CN2C(=O)[C@@H](NC(=O)CCCC(=O)N2CCN(c3ccc(Nc4nc(Nc5ccccc5S(=O)(=O)C(C)C)c5nc[nH]c5n4)cc3)CC2)C(C)(C)C)cc1 [Compound 44] | 0.79 | 0.67 | – | – | – | – | 1.00 | 1.00
